This passage reports Ki results from patent US9029404B2, “Apoptosis-inducing agents for the treatment of cancer and immune and autoimmune diseases” (AbbVie Inc., priority 2008, dated 2015).

Each structure is given as a SMILES string.

Sequence of GST-Bcl-2 (P10415 whole entry): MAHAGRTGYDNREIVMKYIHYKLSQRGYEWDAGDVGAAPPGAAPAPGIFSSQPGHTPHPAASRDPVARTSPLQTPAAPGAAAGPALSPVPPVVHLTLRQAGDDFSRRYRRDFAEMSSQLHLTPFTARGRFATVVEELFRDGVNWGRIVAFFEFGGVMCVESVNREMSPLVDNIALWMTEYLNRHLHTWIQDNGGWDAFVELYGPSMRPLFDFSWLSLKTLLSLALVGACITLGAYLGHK

This assay concerns the target GST-Bcl-2 (Homo sapiens, UniProt P10415). Description: Time Resolved-Fluorescence Resonance Energy Transfer (TR-FRET) Bcl-2 binding assay. The note with it: competition with F-Bak peptide probe (100 nM); GST-Bcl-2 1 nM; Tb-anti-GST 1 nM; 3 hours at room temperature; Wang's equation. The method, then: Determination of the utility of compounds having Formula (I) as binders to and inhibitors of anti-apoptotic Bcl-2 proteins was performed using the Time Resolved-Fluorescence Resonance Energy Transfer (TR-FRET) Assay. Tb-anti-GST antibody was purchased from Invitrogen (Catalog No. PV4216).
Representative compounds were serially diluted in dimethyl sulfoxide (DMSO) starting at 50 μM (2× starting concentration; 10% DMSO) and 10 μL were transferred into a 384-well plate. The samples are then mixed on a shaker for 1 minute and incubated for an additional 3 hours at room temperature. For each assay, the probe/antibody and protein/probe/antibody were included on each assay plate as negative and positive controls, respectively. Fluorescence was measured on the Envision (Perkin Elmer) using a 340/35 nm excitation filter and 520/525 (F-Bak peptide) and 495/510 nm (Tb-labeled anti-Histidine antibody) emission filters.
The samples were then mixed on a shaker for 1 minute and incubated for an additional 3 hours at room temperature. For each assay, the probe/antibody and protein/probe/antibody were included on each assay plate as negative and positive controls, respectively. Fluorescence was measured on the Envision (Perkin Elmer) using a 340/35 nm excitation filter and 520/525 (F-Bak peptide) and 495/510 nm (Tb-labeled anti-Histidine antibody) emission filters.
The inhibition constant (Ki) is the dissociation constant of an enzyme-inhibitor complex or a protein/small molecule complex, wherein the small molecule is inhibiting binding of one protein to another protein. So a large Ki value indicates a low binding affinity and a small Ki value indicates a high binding affinity.
For orientation: TR-FRET usually uses a lanthanide donor and a delayed reading to cut background.
Turning to `CC1(C)CCC(CN2CCN(c3ccc(C(=O)NS(=O)(=O)c4ccc(NCC5(F)CCOCC5)c([N+](=O)[O-])c4)c(Oc4cc(F)cc5[nH]ncc45)c3)CC2)=C(c2ccc(Cl)cc2)C1` [Example 418, 4-(4-{[2-(4-chlorophenyl)-4,4-dimethylcyclohex-1-en-1-yl]methyl}piperazin-1-yl)-2-[(6-fluoro-1H-indazol-4-yl)oxy]-N-[(4-{[(4-fluorotetrahydro-2H-pyran-4-yl)methyl]amino}-3-nitrophenyl)sulfonyl]benzamide], the Ki is below 10 pM.
As for `CO[C@H]1CC[C@H](CNc2ccc(S(=O)(=O)NC(=O)c3ccc(N4CCN(CC5=C(c6ccc(Cl)cc6)CC(C)(C)CC5)CC4)cc3Oc3cccc4[nH]nc(N)c34)cc2[N+](=O)[O-])CC1` [Example 435, 2-[(3-amino-1H-indazol-4-yl)oxy]-4-(4-{[2-(4-chlorophenyl)-4,4-dimethylcyclohex-1-en-1-yl]methyl}piperazin-1-yl)-N-[(4-{[(trans-4-methoxycyclohexyl)methyl]amino}-3-nitrophenyl)sulfonyl]benzamide], the figure is 10 pM; as for `CC1(C)CCC(CN2CCN(c3ccc(C(=O)NS(=O)(=O)c4cnc(OCC5(F)CCOCC5)c(Cl)c4)c(Oc4cc(F)cc5[nH]ncc45)c3)CC2)=C(c2ccc(Cl)cc2)C1` [Example 415, N-({5-chloro-6-[(4-fluorotetrahydro-2H-pyran-4-yl)methoxy]pyridin-3-yl}sulfonyl)-4-(4-{[2-(4-chlorophenyl)-4,4-dimethylcyclohex-1-en-1-yl]methyl}piperazin-1-yl)-2-[(6-fluoro-1H-indazol-4-yl)oxy]benzamide], 13 pM; as for `CC1(C)CCC(CN2CCN(c3ccc(C(=O)NS(=O)(=O)c4cnc(OCC5CCC(C)(O)CC5)c(C#N)c4)c(Oc4cc(F)cc5[nH]ncc45)c3)CC2)=C(c2ccc(Cl)cc2)C1` (stereo not drawn) [Example 453, 4-(4-{[2-(4-chlorophenyl)-4,4-dimethylcyclohex-1-en-1-yl]methyl}piperazin-1-yl)-N-({5-cyano-6-[(trans-4-hydroxy-4-methylcyclohexyl)methoxy]pyridin-3-yl}sulfonyl)-2-[(6-fluoro-1H-indazol-4-yl)oxy]benzamide], below 10 pM.
In the case of `CO[C@H]1CC[C@H](CNc2ccc(S(=O)(=O)NC(=O)c3ccc(N4CCN(CC5=C(c6ccc(Cl)cc6)CC(C)(C)CC5)CC4)cc3Oc3cccc4[nH]c(=O)n(C)c34)cc2[N+](=O)[O-])CC1` [Example 427, 4-(4-{[2-(4-chlorophenyl)-4,4-dimethylcyclohex-1-en-1-yl]methyl}piperazin-1-yl)-N-[(4-{[(trans-4-methoxycyclohexyl)methyl]amino}-3-nitrophenyl)sulfonyl]-2-[(3-methyl-2-oxo-2,3-dihydro-1H-benzimidazol-4-yl)oxy]benzamide], the Ki was below 10 pM.
Next, `CC1(C)CCC(CN2CCN(c3ccc(C(=O)NS(=O)(=O)c4ccc(NCC5CN(C6COC6)CCO5)c([N+](=O)[O-])c4)c(Oc4cc5cc[nH]c5cc4F)c3)CC2)=C(c2ccc(Cl)cc2)C1` (stereo not shown) [Example 422, 4-(4-{[2-(4-chlorophenyl)-4,4-dimethylcyclohex-1-en-1-yl]methyl}piperazin-1-yl)-2-[(6-fluoro-1H-indol-5-yl)oxy]-N-{[3-nitro-4-({[4-(oxetan-3-yl)morpholin-2-yl]methyl}amino)phenyl]sulfonyl}benzamide]: below 10 pM; `CC1(C)CCC(CN2CCN(c3ccc(C(=O)NS(=O)(=O)c4ccc(OCC5CCC6(CC5)COC6)c([N+](=O)[O-])c4)c(Oc4cnc(N)c(Cl)c4)c3)CC2)=C(c2ccc(Cl)cc2)C1` [Example 440, 2-[(6-amino-5-chloropyridin-3-yl)oxy]-4-(4-{[2-(4-chlorophenyl)-4,4-dimethylcyclohex-1-en-1-yl]methyl}piperazin-1-yl)-N-{[3-nitro-4-(2-oxaspiro[3.5]non-7-ylmethoxy)phenyl]sulfonyl}benzamide]: 22 pM.
As for `CC1(C)CCC(CN2CCN(c3ccc(C(=O)NS(=O)(=O)c4cnc(OCC5CCC(C)(O)CC5)c(Cl)c4)c(Oc4cccc5[nH]nc(Cl)c45)c3)CC2)=C(c2ccc(Cl)cc2)C1` (stereo not drawn) [Example 446, N-({5-chloro-6-[(trans-4-hydroxy-4-methylcyclohexyl)methoxy]pyridin-3-yl}sulfonyl)-2-[(3-chloro-1H-indazol-4-yl)oxy]-4-(4-{[2-(4-chlorophenyl)-4,4-dimethylcyclohex-1-en-1-yl]methyl}piperazin-1-yl)benzamide], the figure is 15 pM; as for `Cn1c(=O)[nH]c2cccc(Oc3cc(N4CCN(CC5=C(c6ccc(Cl)cc6)CC(C)(C)CC5)CC4)ccc3C(=O)NS(=O)(=O)c3ccc(OCC4CCOCC4)c(Cl)c3)c21` [Example 438, 4-(4-{[2-(4-chlorophenyl)-4,4-dimethylcyclohex-1-en-1-yl]methyl}piperazin-1-yl)-N-{[3-chloro-4-(tetrahydro-2H-pyran-4-ylmethoxy)phenyl]sulfonyl}-2-[(3-methyl-2-oxo-2,3-dihydro-1H-benzimidazol-4-yl)oxy]benzamide], 31 pM; as for `CC1(C)CCC(CN2CCN(c3ccc(C(=O)NS(=O)(=O)c4cnc(OCC5(F)CCC(C)(O)CC5)c(Cl)c4)c(Oc4cnc(N)c(Cl)c4)c3)CC2)=C(c2ccc(Cl)cc2)C1` (stereo not drawn) [Example 443, 2-[(6-amino-5-chloropyridin-3-yl)oxy]-N-({5-chloro-6-[(trans-1-fluoro-4-hydroxy-4-methylcyclohexyl)methoxy]pyridin-3-yl}sulfonyl)-4-(4-{[2-(4-chlorophenyl)-4,4-dimethylcyclohex-1-en-1-yl]methyl}piperazin-1-yl)benzamide], 29 pM.
In the case of `CC1(C)CCC(CN2CCN(c3ccc(C(=O)NS(=O)(=O)c4ccc(N[C@H]5CC[C@@H](N6CCOCC6)CC5)c([N+](=O)[O-])c4)c(Oc4cnc(N)c(Cl)c4)c3)CC2)=C(c2ccc(Cl)cc2)C1` [Example 452, 2-[(6-amino-5-chloropyridin-3-yl)oxy]-4-(4-{[2-(4-chlorophenyl)-4,4-dimethylcyclohex-1-en-1-yl]methyl}piperazin-1-yl)-N-[(4-{[cis-4-(morpholin-4-yl)cyclohexyl]amino}-3-nitrophenyl)sulfonyl]benzamide], the affinity, expressed as Ki, was 112 pM.
Next, `Cn1c(=O)[nH]c2cccc(Oc3cc(N4CCN(CC5=C(c6ccc(Cl)cc6)CC(C)(C)CC5)CC4)ccc3C(=O)NS(=O)(=O)c3ccc(OCC4(F)CCOCC4)c([N+](=O)[O-])c3)c21` [Example 426, 4-(4-{[2-(4-chlorophenyl)-4,4-dimethylcyclohex-1-en-1-yl]methyl}piperazin-1-yl)-N-({4-[(4-fluorotetrahydro-2H-pyran-4-yl)methoxy]-3-nitrophenyl}sulfonyl)-2-[(3-methyl-2-oxo-2,3-dihydro-1H-benzimidazol-4-yl)oxy]benzamide]: below 10 pM.
Next, `CC1(C)CCC(CN2CCN(c3ccc(C(=O)NS(=O)(=O)c4ccc(NCC5CCC6(CC5)COC6)c([N+](=O)[O-])c4)c(Oc4cnc(N)c(Cl)c4)c3)CC2)=C(c2ccc(Cl)cc2)C1` [Example 450, 2-[(6-amino-5-chloropyridin-3-yl)oxy]-4-(4-{[2-(4-chlorophenyl)-4,4-dimethylcyclohex-1-en-1-yl]methyl}piperazin-1-yl)-N-({3-nitro-4-[(2-oxaspiro[3.5]non-7-ylmethyl)amino]phenyl}sulfonyl)benzamide]: below 10 pM.

A word on the Ki: it is the dissociation constant of the complex between target and ligand, obtained from inhibition or displacement.
